Assay results published in US5639751A, “N-acyl-2,3-benzodiazepine derivatives for treating acute and chronic neurodegenerative disorders” (priority 1990, dated 1997).

How the values were obtained:
male CFLP mice [1] = experiment: Anticonvulsive effect in mice, 4-aminopyridine; assay type: in vivo; conditions: Mus musculus, po, read-out: ED50 p.o., 4-AP (4-aminopyridine)
Protocol: (§1) The anticonvulsive effect of the compounds of the formula (I) was measured by using the electroshock test [J. Pharmacol. Exp. Ther. 106, 319 (1952)], furthermore by using various chemical agents such as pentetrazole [J. Pharmacol. Exp. Ther. 108, 168 (1953)], strychnine [J. Pharmacol. Exp. Ther. 129, 75 (1960)], bemegride, nicotine and 4-aminopyridine. The test compounds were orally administered in 3 doses, to 10 male CFLP mice per dose.

CFLP mice = experiment: Inclined screen test in mice; assay type: in vivo; conditions: Mus musculus, ip, read-out: ED50 i.p., inclined screen test
From the text: In Randall's inclined screen test [J. Pharmacol. Exp. Ther. 129, 163 (1960)] the compounds were applied in 3 i.p. doses to 10 CFLP mice per dose.

cats [2] = experiment: Effect on spinal (polysynaptic) flexor reflexes in chloralose anaesthetized cats; assay type: in vivo; conditions: Felis catus, iv
From the text: Res. Comm. 20, S1, 141 (1988)].

mice = experiment: Rotarod test in mice; assay type: in vivo; conditions: Mus musculus, ip, read-out: ED50 i.p., rotarod test
From the text: The rotarod test was used to measure muscular tone and motor co-ordination [J. Am. Pharm. Assoc. 46, 208 (1957)].

male CFLP mice [3] = experiment: Anticonvulsive effect in mice, nicotine; assay type: in vivo; conditions: Mus musculus, po
Protocol: as §1

male CFLP mice [4] = experiment: Anticonvulsive effect in mice, pentetrazole; assay type: in vivo; conditions: Mus musculus, po, read-out: ED50 p.o., Pentetrazole
Protocol: as §1

male CFLP mice [5] = experiment: Anticonvulsive effect in mice, bemegride; assay type: in vivo; conditions: Mus musculus, po, read-out: ED50 p.o., Bemegride
Protocol: as §1

[6] = Kainate induced spreading depression in isolated chicken retina; assay type: cell-based; conditions: kainate (5 μM)
Protocol: (§2) Anti-kainate and -AMPA effects were investigated in the in vitro retinal spreading depression model [Brain Res. 607, 189 (1993)]. AMPA/kainate antagonists prolong the latency of the development of spreading depression evoked. by kainate (5 μM), or AMPA (5 μM). In some cases the effect on spreading depression evoked by 100 μM NMDA was also studied to clarify the selectivity.

cats [7] = experiment: Effects on spinal root reflex potentials in spinalized and immobilized cats; assay type: in vivo; conditions: Felis catus, iv
Protocol: The effect of compound of Example 15(16) on the spinal root potentials in cats was tested in spinalized and immobilized animals [Neuropharmacology 21, 161 (1989)].

male CFLP mice [8] = experiment: Anticonvulsive effect in mice, electroshock test; assay type: in vivo; conditions: Mus musculus, po, read-out: ED50 p.o., ES (electroshock)
Protocol: as §1

NMDA [9] = experiment: NMDA induced responses (DC potentials) in rat neocortex slices; assay type: cell-based
[10] = test system: [^3 H]-AMPA specific binding sites in CNS membrane preparations; conditions: Neuroreport 5, 93 (1993); cited from earlier work
AMPA receptor = experiment: Inhibition of quisqualate induced DC potentials in rat neocortex slices; assay type: cell-based; conditions: concentration range of 10-50 μM
Protocol: The AMPA antagonist effect was tested in rat neocortex slices by using a method similar to that of Harrison and Simmonds [Br. J. Pharmacol. 84, 381 (1985)].

AMPA receptors = experiment: Inhibition of synaptic field potentials in rat neocortex slices; assay type: cell-based
From the text: Similarly as in hippocampal CA1 area, glutamate is the main excitatory transmitter in the neocortex, and dominantly AMPA receptors are involved in mediation of synaptic responses evoked by stimulation of the white matter and recorded from the area adjacent to the site of stimulation [J. Neurophysiol. 64, 1282 (1990)]. The inhibitory effect on such field potentials was studied in rat neocortex slices, maintained in Vitro, according to Fletcher et al. [Br. J. Pharmacol. 95, 585 (1988)].

AMPA/kainate receptors = experiment: Inhibition of synaptic field potentials (population spikes) in rat hippocampal slices; assay type: cell-based; conditions: population spikes in CA1, after 30 min. perfusion
Protocol: Synaptic potentials in the CA1 area of hippocampus evoked by stimulation of the Schaffer collaterals are mediated by AMPA/kainate receptors. […] Lett. 92, 64 (1988)].
The inhibition of population spikes in CA1 was studied in rat hippocampal slices after 30 min. perfusion application of the test compounds.

male CFLP mice [11] = experiment: Anticonvulsive effect in mice, strychnine; assay type: in vivo; conditions: Mus musculus, po, read-out: ED50 p.o., Strychnine
Protocol: as §1

[12] = AMPA induced spreading depression in isolated chicken retina; assay type: cell-based; conditions: AMPA (5 μM)
Protocol: as §2

NMDA [13] = experiment: NMDA evoked spreading depression in isolated chicken retina; assay type: cell-based; conditions: spreading depression evoked by 100 μM NMDA
Protocol: as §2

[14] = test system: [^3 H]-kainate specific binding sites in CNS membrane preparations; conditions: Neuroreport 5, 93 (1993); cited from earlier work

Structure (SMILES): CC1=NN=C(c2ccc(N)cc2)c2cc3c(cc2C1)OCO3 [GYKI 52466, 1-(4-aminophenyl)-4-methyl-7,8-methylenedioxy-5H-2,3-benzodiazepine, reference compound]
- ED50 (male CFLP mice [1]): 43 mg/kg
- ED50 (CFLP mice): 47 mg/kg
- ED50 (cats [2]): 0.9 mg/kg
- ED50 (mice): 24 mg/kg
- ED50 (male CFLP mice [3]): 70 mg/kg
- ED50 (male CFLP mice [4]): 115 mg/kg
- ED50 (male CFLP mice [5]): 73 mg/kg
- IC50 [6]: 9.5 µM
- ED50 (cats [7]; * <20% inhibition at the highest dose applied, read-out: ED50, DRP (dorsal root potential)): > 4 mg/kg
- ED50 (cats [7]; * <20% inhibition at the highest dose applied, read-out: ED50, DRR (dorsal root reflex)): > 4 mg/kg
- ED50 (cats [7]; read-out: ED50, MSR (monosynaptic ventral root reflex)): 2.2 mg/kg
- ED50 (cats [7]; read-out: ED50, PSR (polysynaptic ventral root reflex)): 2.3 mg/kg
- ED50 (male CFLP mice [8]): 38 mg/kg
- Effect on the responses induced by NMDA (NMDA [9]): failed to affect
- Displacement of [3H]-AMPA from specific binding sites [10]: displace neither
- Inhibition of DC-potential changes induced by perfusion of quisqualate (AMPA receptor): dose-dependently inhibited
- IC50 (AMPA receptors): 30 µM
- Inhibition of induced field potentials in % of control (AMPA receptors; concentration 10 μM): 22%
- Inhibition of induced field potentials in % of control (AMPA receptors; concentration 20 μM): 39%
- Inhibition of induced field potentials in % of control (AMPA receptors; concentration 40 μM): 62%
- Inhibition of induced field potentials in % of control (AMPA receptors; concentration 80 μM): 73%
- IC50 (AMPA/kainate receptors): 31.7 µM
- ED50 (male CFLP mice [11]): 87 mg/kg
- IC50 [12]: 6.3 µM
- NMDA antagonist effect, times weaker than AMPA antagonist effect (NMDA [13]): ≥ 10 times
- Displacement of [3H]-kainate from specific binding sites [14]: displace neither
